Results on one molecule are retold here after patent US8546102B2, “Methods for determining sodium-proton-exchanger ligand efficiency” (Sanofi, priority 2008, dated 2013).

Values joined by “and” are separate entries in the source; they are usually repeats but may differ in a detail not shown here. Equal entries are not always repeated. Where two headings read alike, the source gives them in different places.

The target of series [1] is T1, hNHE1 (Homo sapiens, UniProt P19634).
T1 construct: expressed in transfected cells
Nature of the series: NHE1 plasma assay (pH recovery, BCECF/FLIPR) with plasma of treated rats. The format is cell-based. How it is done:
The animals used for the plasma studied were pretreated as follows: • Animals: Male Sprague Dawley rats (Moellegard) • Body weight: 320-360 g • Anesthesia: Thiopental-Na (Trapanal 100 mg/kg i.p.) • Respiration: 40 Vol % O2 • Blood gases: 32-40 mmHg pCO2 • 80-100 mmHg PO2 • pH 7.35-7.49 • SaO2>96% • Ischemia: 20 min occlusion of LAD (left anterior descending coronary artery) • Reperfusion: 60 min • Body temperature: 36.5° C. • Measurement parameters: myocardial infarct mass mean arterial blood pressure heart rate • compound plasma levels • Blood samples: single probe, 85 min after i.v. injection (end of reperfusion) • or • single probe 200 min after oral treatment (end of reperfusion)
Different amounts of plasma were prepared from groups I to VII 85 mins after injection (groups I-IV, VII) or 200 mins after treatment (groups V-VI) and from untreated rats. Plasma was stored at −20° C. until the analysis was performed.
(§1) For the cell-based determination of NHE1 ligand efficiency, LAP1 (mouse LTK-cell line) cells stably expressing hNHE1 (see Example 1) were seeded at a density of 25.000 cells/well/100 μl medium (Iscove-medium, 10% FCS, 2 mM L-glutamine, 100 μ/ml penicilline/streptomycine, 50 μg/ml gentamicine, 400 μg/ml G418) on black, clear bottom 96-well microplates (Costar®, Corning Inc., Corning, N.Y.). Cells were incubated overnight at 37° C., 5% CO2 and 90% humidity. The medium was discarded prior to measurement and 100 μl/well dye buffer (20 mM HEPES, pH 7.4 adjusted with KOH, 20 mM NH4Cl, 115 mM choline chloride, 1 mM MgCl2, 1 mM CaCl2, 5 mM KCl, 5 mM glucose, 5 μM BCECF) were added. After incubation for 20 min at 37° C. the cells were washed 3-times with Na^+-free washing buffer (5 mM HEPES, pH 7.4 adjusted with KOH, 133.8 mM choline chloride, 4.7 mM KCl, 1.25 mM CaCl2, 1.25 mM MgCl2, 0.97 mM K2HPO4, 0.23 mM KH2PO4, 5 mM glucose), leaving 90 μl of washing buffer per well. The plasma probes were prepared as followed: 10% (v/v) Na^+-buffer (10 mM HEPES, pH 7.4 adjusted with KOH, 133.8 mM NaCl, 4.7 mM KCl, 1.25 mM MgCl2, 1.25 mM CaCl2, 0.97 mM Na2HPO4, 0.23 mM NaH2PO4, 5 mM glucose) were added to 90% (v/v) rat plasma.
High controls (plasma solution without antagonist) and low controls (plasma solution with 20 μM cariporide, 10 μM final concentration) were prepared. […]
The pH-recovery was measured with a FLIPR (Fluorometric Imaging Plate Reader, Molecular Devices, Sunnyvale, Calif.; laser power 0.3 W, aperture 4, measuring interval 2 s, time of measurement 120 s). […]
For calculation of NHE1 activity, the increase in fluorescence between the 12th and 32nd s was calculated. […] Activity (%) of the samples was calculated by a comparison of the controls. Compound plasma levels were calculated in relation to the calibration curve.

Series [2] is described as follows: NHE1 plasma assay (pH recovery, BCECF/FLIPR) with rabbit plasma. The format is cell-based, human. As to conditions: male, New Zealand, rabbit, plasma, oral, 0.3 % in chow; rabbits on 0.3% cariporide chow, 1 week; inferred from complete NHE1 block. From the text: (§2) Plasma samples were obtained from male New Zealand rabbits (2.5-3.5 kg) maintained on standard rabbit chow with 0.3% cariporide (NHE inhibitor). A blood sample was taken after 1 week from the auricular artery for the determination of the plasma concentrations of cariporide. Determination of plasma concentration of cariporide was done as described below:
(§3) The NHE-Gene (SLC9A1, Franchi A. et al., Proc Natl Acad Sci USA., 1986 December; 83(24):9388-92.) was cloned into the pMamneo-vector and introduced into LAP1 (mouse LTK-cell line) cells. Stable cell lines were generated from transfected cells.
(§4) LAP1 (mouse LTK-cell line) cells stably expressing human NHE1 (hNHE1) were seeded with a density of 25.000 cells/well/100 μl medium (Iscove-medium, 10% FCS, 2 mM L-glutamine, 100 u/ml penicilline/streptomycine, 50 μg/ml gentamicine, 400 μg/ml G418) on black, clear bottom 96-well microplates (Costar®, Corning Inc., Corning, N.Y.). Cells were incubated overnight at 37° C., 5% CO2 and 90% humidity. The medium was discarded prior to measurement and 100 μl/well dye buffer (20 mM HEPES, pH 7.4 adjusted with KOH, 20 mM NH4Cl, 115 mM choline chloride, 1 mM MgCl2, 1 mM CaCl2, 5 mM KCl, 5 mM glucose, 5 μM BCECF) were added. After incubation for 20 min at 37° C. the cells were washed 3-times with Na^+-free washing buffer (5 mM HEPES, pH 7.4 adjusted with KOH, 133.8 mM choline chloride, 4.7 mM KCl, 1.25 mM CaCl2, 1.25 mM MgCl2, 0.97 mM K2HPO4, 0.23 mM KH2PO4, 5 mM glucose), leaving 90 μl of washing buffer per well. pH-recovery was measured with a FLIPR (Fluorometric Imaging Plate Reader, Molecular Devices, Sunnyvale, Calif.; laser power 0.3 W, aperture 4, measuring interval 2 s, time of measurement 120 s). During measurement 90 μl of plasma solution (90% animal plasma from animals feeded w/o antagonist, 10% Na^+-buffer: 10 mM HEPES, pH 7.4 adjusted with KOH, 133.8 mM NaCl, 4.7 mM KCl, 1.25 mM MgCl2, 1.25 mM CaCl2, 0.97 mM Na2HPO4, 0.23 mM NaH2PO4, 5 mM glucose) were added to the wells. Due to the Na^+ in the buffer NHE1 starts to transport H^+ out of the cells, leading to an increase in intracellular pH and fluorescence. High control: plasma solution without antagonist. Low control: plasma solution with 20 μM cariporide (10 μM final concentration). Cariporide was added to the plasma after preparation. […] For calibration different amounts of cariporide and the tested antagonists were added to plasma after preparation to determine the efficiency in animal plasma.
(§5) For calculation of NHE1 activity, the increase in fluorescence between the 12th and 32nd s was calculated. The high control was set as 100% activity whereas the low control determines 0% NHE1 activity. %-activity of the samples was calculated by a comparison to the controls.

Another series concerns the target T2, human NHE1 (hNHE1) (Homo sapiens, UniProt P19634).
T2 construct: expressed in transfected cells
Described as above. The format is cell-based.
From the text: as §2, §3, §4, §5

Series [3] addresses T1, hNHE1. Nature of the series: Calibration curve of NHE1 activity, compound dilution series in rat plasma. The series is classed as cell-based. How it is done:
as §1, with “plasma. High controls (plasma solution without antagonist) and low controls (plasma solution with 20 μM cariporide, 10 μM final concentration) were prepared. A dilution series of cariporide and COMPOUND X in 10% (v/v) Na^+-buffer/90% (v/v) rat plasma was used for a calibration curve to calculate the compound concentration in the rat plasma probes FIGS. 1 and 2). The pH-recovery was measured with a FLIPR (Fluorometric Imaging Plate Reader, Molecular Devices, Sunnyvale, Calif.; laser power 0.3 W, aperture 4, measuring interval 2 s, time of measurement 120 s). During measurement 90 μl of plasma solution were added to the wells. For calculation of NHE1 activity, the increase in fluorescence between the 12th and 32nd s was calculated. The high control was set as 100% activity and the low control as 0% NHE1 activity. Activity (%) of the samples was calculated by a comparison of the controls. Compound plasma levels were calculated in relation to the calibration curve. Additionally, calibration curves were used to calculate the compound plasma levels in the probe sets.” for “plasma.”

The mark [4] stands for this setting: rat plasma, 1 mg/kg i.v., 85 min after injection.

T1 sequence (P19634 whole entry): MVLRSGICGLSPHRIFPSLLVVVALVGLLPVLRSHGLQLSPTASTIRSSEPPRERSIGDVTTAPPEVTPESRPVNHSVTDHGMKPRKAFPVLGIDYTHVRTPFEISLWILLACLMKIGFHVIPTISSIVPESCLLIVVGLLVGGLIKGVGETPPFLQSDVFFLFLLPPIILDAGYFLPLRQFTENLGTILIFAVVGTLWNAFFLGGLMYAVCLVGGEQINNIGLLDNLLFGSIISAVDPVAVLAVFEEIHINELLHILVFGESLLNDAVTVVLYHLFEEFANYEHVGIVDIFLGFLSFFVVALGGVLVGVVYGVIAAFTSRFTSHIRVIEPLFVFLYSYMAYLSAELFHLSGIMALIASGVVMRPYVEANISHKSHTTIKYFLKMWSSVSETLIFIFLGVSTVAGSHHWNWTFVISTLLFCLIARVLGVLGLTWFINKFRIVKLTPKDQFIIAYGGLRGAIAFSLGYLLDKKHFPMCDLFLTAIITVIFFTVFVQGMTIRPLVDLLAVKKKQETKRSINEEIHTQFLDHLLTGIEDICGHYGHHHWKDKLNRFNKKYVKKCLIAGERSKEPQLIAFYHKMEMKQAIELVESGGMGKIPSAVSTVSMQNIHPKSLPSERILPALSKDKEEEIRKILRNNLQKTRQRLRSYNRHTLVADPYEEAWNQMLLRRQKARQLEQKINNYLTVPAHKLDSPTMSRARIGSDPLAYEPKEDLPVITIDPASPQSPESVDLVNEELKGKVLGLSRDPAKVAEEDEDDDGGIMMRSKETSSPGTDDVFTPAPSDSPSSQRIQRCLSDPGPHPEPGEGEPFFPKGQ
T2 sequence (P19634 whole entry): as above

For `CC(C)c1ccc(C(=O)NC(=N)N)cc1S(C)(=O)=O` [cariporide], the “rel. FI increase mean” value at hNHE1 [1] (low control: rat plasma solution with 10 μM final cariporide) worked out at 3110. Further, the “Activity [%] mean” value on hNHE1 [1] (low control: rat plasma with 10 μM final cariporide, set as 0% NHE1 activity) was found to be 0%. On hNHE1 [1] (setting [4]), the “Activity [%] mean” value was found to be 49.95% and the “rel. FI increase mean” value came to 7392. For the same molecule, the concentration at 1 week in series [2] is at least 10 µM. Further, the “block of NHE1 activity” value at human NHE1 (hNHE1) (10 μM cariporide (final) added to plasma) was “complete block”. Further, the “Fluorescence increase measured between the 12th and 32nd s, Average” value at human NHE1 (hNHE1) (low control: rabbit plasma with 10 μM cariporide, high control 14416) was found to be 631. For the same molecule, on human NHE1 (hNHE1) (plasma from individual rabbits on 0.3% cariporide chow, sample after 1 week, relative to high/low controls), the “NHE1 Activity [%]” value was −0.63% and −5.45% (2×) and −1.53% and −0.39% and −2.25%. Besides, on human NHE1 (hNHE1) (plasma from rabbits on 0.3% cariporide chow), the “block of NHE1 by plasma probes” value was “complete block”. In addition, the EC50 at hNHE1 [3] (calibration curve, dilution series in 90% rat plasma/10% Na+-buffer, LAP1 cells expressing hNHE1, read-out: calculated efficiency in rat plasma (EC50)) is 115 nM. On hNHE1 [3] (rat plasma calibration curve), the “Fit parameter A of the calibration curve” value was −7.947, the “Fit parameter B of the calibration curve” value is 86.547 and the “Fit parameter D of the calibration curve” value is on record as −1.239. Moreover, the EC50 at hNHE1 [3] (rat plasma calibration curve, C corresponds to the EC50 (0.662 = 662 nM for compound X), read-out: Fit parameter C of the calibration curve) stood at 189 nM.
